Measured values reported in PubChem BioAssay (NCI).
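Test compounds were applied to cells in 96-well plates for 48 hours at 5 doses. GI50 = concentration required for 50% inhibition of growth. TGI: total growth inhibition.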

Experiments:
Assay in all cases: NCI tumour cell line growth inhibition, 48 h
SF-268 CNS = test system: SF-268 CNS
NCI-H460 lung = test system: NCI-H460 lung
HOP-62 NSCLC = test system: HOP-62 NSCLC
LOX IMVI melanoma = test system: LOX IMVI melanoma
SNB-19 CNS = test system: SNB-19 CNS
PC-3 prostate = test system: PC-3 prostate
K-562 leukemia = test system: K-562 leukemia
OVCAR-3 ovarian = test system: OVCAR-3 ovarian
BT-549 breast = test system: BT-549 breast
SNB-75 CNS = test system: SNB-75 CNS
NCI/ADR-RES ovarian = test system: NCI/ADR-RES ovarian
SF-295 CNS = test system: SF-295 CNS
SK-MEL-5 melanoma = test system: SK-MEL-5 melanoma
HCT-15 colon = test system: HCT-15 colon
HCT-116 colon = test system: HCT-116 colon
OVCAR-8 ovarian = test system: OVCAR-8 ovarian
NCI-H522 lung = test system: NCI-H522 lung
OVCAR-4 ovarian = test system: OVCAR-4 ovarian
HL-60(TB) leukemia = test system: HL-60(TB) leukemia
UO-31 renal = test system: UO-31 renal
RPMI-8226 leukemia = test system: RPMI-8226 leukemia
SK-MEL-2 melanoma = test system: SK-MEL-2 melanoma
CAKI-1 renal = test system: CAKI-1 renal
SW-620 colon = test system: SW-620 colon
NCI-H226 lung = test system: NCI-H226 lung
CCRF-CEM leukemia = test system: CCRF-CEM leukemia
KM12 colon = test system: KM12 colon
T-47D breast = test system: T-47D breast
M14 melanoma = test system: M14 melanoma
A498 renal = test system: A498 renal
HS 578T breast = test system: HS 578T breast
HOP-92 NSCLC = test system: HOP-92 NSCLC
OVCAR-5 ovarian = test system: OVCAR-5 ovarian
ACHN renal = test system: ACHN renal
NCI-H23 lung = test system: NCI-H23 lung
SR leukemia = test system: SR leukemia
RXF 393 renal = test system: RXF 393 renal
DU-145 prostate = test system: DU-145 prostate
MOLT-4 leukemia = test system: MOLT-4 leukemia
UACC-257 melanoma = test system: UACC-257 melanoma
MDA-MB-435 = test system: MDA-MB-435
TK-10 renal = test system: TK-10 renal
MDA-MB-231 breast = test system: MDA-MB-231 breast
IGROV1 ovarian = test system: IGROV1 ovarian
HT29 colon = test system: HT29 colon
HCC-2998 colon = test system: HCC-2998 colon
A549 NSCLC = test system: A549 NSCLC
MCF7 breast = test system: MCF7 breast
SN12C renal = test system: SN12C renal
COLO 205 colon = test system: COLO 205 colon
SK-MEL-28 melanoma = test system: SK-MEL-28 melanoma
786-0 renal = test system: 786-0 renal
U251 CNS = test system: U251 CNS
MALME-3M melanoma = test system: MALME-3M melanoma
SF-539 CNS = test system: SF-539 CNS
UACC-62 melanoma = test system: UACC-62 melanoma
SK-OV-3 ovarian = test system: SK-OV-3 ovarian
EKVX NSCLC = test system: EKVX NSCLC

## CS(=O)(=O)N1CCC(Nc2ncc(C(=O)c3c(F)cccc3F)c(N)n2)CC1
SF-268 CNS
  GI50: > 17.9 µM
  TGI: > 25 µM
NCI-H460 lung
  GI50: 4.25 µM
  TGI: > 25 µM
HOP-62 NSCLC
  GI50: 12.6 µM
  TGI: > 25 µM
LOX IMVI melanoma
  GI50: 9.9 µM
  TGI: > 25 µM
SNB-19 CNS
  GI50: 6.45 µM
  TGI: > 25 µM
PC-3 prostate
  GI50: 4.8 µM
  TGI: > 25 µM
K-562 leukemia
  GI50: 20.4 µM
  TGI: > 25 µM
OVCAR-3 ovarian
  GI50: 13.7 µM
  TGI: > 25 µM
BT-549 breast
  GI50: > 20.7 µM
  TGI: > 25 µM
SNB-75 CNS
  GI50: > 10.9 µM
  TGI: 24.3 µM
NCI/ADR-RES ovarian
  GI50: > 25 µM
  TGI: > 25 µM
SF-295 CNS
  GI50: 11.2 µM
  TGI: > 25 µM
SK-MEL-5 melanoma
  GI50: 7.65 µM
  TGI: > 25 µM
HCT-15 colon
  GI50: 11.8 µM
  TGI: > 25 µM
HCT-116 colon
  GI50: 6 µM
  TGI: > 25 µM
OVCAR-8 ovarian
  GI50: 9.7 µM
  TGI: > 25 µM
NCI-H522 lung
  GI50: > 13.1 µM
  TGI: > 25 µM
OVCAR-4 ovarian
  GI50: > 13.5 µM
  TGI: > 25 µM
HL-60(TB) leukemia
  GI50: 8.65 µM
  TGI: > 25 µM
UO-31 renal
  GI50: 12 µM
  TGI: > 25 µM
RPMI-8226 leukemia
  GI50: 7.67 µM
  TGI: > 25 µM
SK-MEL-2 melanoma
  GI50: > 20.9 µM
  TGI: > 25 µM
CAKI-1 renal
  GI50: 8.76 µM
  TGI: > 25 µM
SW-620 colon
  GI50: 5.73 µM
  TGI: > 25 µM
NCI-H226 lung
  GI50: 7.27 µM
  TGI: > 25 µM
CCRF-CEM leukemia
  GI50: 9.91 µM
  TGI: > 25 µM
KM12 colon
  GI50: 8.67 µM
  TGI: > 25 µM
T-47D breast
  GI50: 12 µM
  TGI: > 25 µM
M14 melanoma
  GI50: 19.4 µM
  TGI: > 25 µM
A498 renal
  GI50: 9.15 µM
  TGI: > 25 µM
HS 578T breast
  GI50: 15.1 µM
  TGI: > 25 µM
HOP-92 NSCLC
  GI50: 1.96 µM
  TGI: > 20.8 µM
OVCAR-5 ovarian
  GI50: 9.78 µM
  TGI: > 25 µM
ACHN renal
  GI50: 7.06 µM
  TGI: > 25 µM
NCI-H23 lung
  GI50: 8.6 µM
  TGI: > 25 µM
SR leukemia
  GI50: 3.79 µM
  TGI: > 18.5 µM
RXF 393 renal
  GI50: 5.32 µM
  TGI: 17.9 µM
DU-145 prostate
  GI50: 9.76 µM
  TGI: > 25 µM
MOLT-4 leukemia
  GI50: 11.2 µM
  TGI: > 25 µM
UACC-257 melanoma
  GI50: 13.2 µM
  TGI: > 25 µM
MDA-MB-435
  GI50: 11.1 µM
  TGI: > 25 µM
TK-10 renal
  GI50: 7.98 µM
  TGI: > 25 µM
MDA-MB-231 breast
  GI50: 11.9 µM
  TGI: > 25 µM
IGROV1 ovarian
  GI50: 11.4 µM
  TGI: > 25 µM
HT29 colon
  GI50: 10.1 µM
  TGI: > 25 µM
HCC-2998 colon
  GI50: 12.9 µM
  TGI: > 25 µM
A549 NSCLC
  GI50: 6.14 µM
  TGI: > 25 µM
MCF7 breast
  GI50: 2.11 µM
  TGI: > 25 µM
SN12C renal
  GI50: 12.3 µM
  TGI: > 25 µM
COLO 205 colon
  GI50: 6.26 µM
  TGI: > 25 µM
SK-MEL-28 melanoma
  GI50: 18.6 µM
  TGI: > 25 µM
786-0 renal
  GI50: 12.6 µM
  TGI: > 25 µM
U251 CNS
  GI50: 6.33 µM
  TGI: > 25 µM
MALME-3M melanoma
  GI50: 10.6 µM
  TGI: > 25 µM
SF-539 CNS
  GI50: 9.36 µM
  TGI: > 25 µM
UACC-62 melanoma
  GI50: 12.6 µM
  TGI: > 25 µM
SK-OV-3 ovarian
  GI50: > 25 µM
  TGI: > 25 µM

## COc1ccc2nc3ccc(OC)cc3c(S(=O)Cc3ccccc3)c2c1 (stereo unspecified)
SF-268 CNS
  TGI: 40.2 µM
NCI-H460 lung
  TGI: > 74.5 µM
HOP-62 NSCLC
  TGI: 33.4 µM
LOX IMVI melanoma
  TGI: 6.66 µM
SNB-19 CNS
  TGI: 41.5 µM
PC-3 prostate
  TGI: 27.2 µM
K-562 leukemia
  TGI: > 25.6 µM
OVCAR-3 ovarian
  TGI: 26.1 µM
BT-549 breast
  TGI: 27.4 µM
SNB-75 CNS
  TGI: 28.8 µM
NCI/ADR-RES ovarian
  TGI: 46.7 µM
SF-295 CNS
  TGI: 35.4 µM
SK-MEL-5 melanoma
  TGI: 30.5 µM
HCT-15 colon
  TGI: > 48.9 µM
HCT-116 colon
  TGI: 6.3 µM
OVCAR-8 ovarian
  TGI: 12.7 µM
NCI-H522 lung
  TGI: 2.63 µM
OVCAR-4 ovarian
  TGI: 30.2 µM
HL-60(TB) leukemia
  TGI: 35.9 µM
UO-31 renal
  TGI: 22.8 µM
RPMI-8226 leukemia
  TGI: 6.6 µM
SK-MEL-2 melanoma
  TGI: 33 µM
CAKI-1 renal
  TGI: 25.6 µM
SW-620 colon
  TGI: > 32.1 µM
NCI-H226 lung
  TGI: 38.5 µM
CCRF-CEM leukemia
  TGI: > 22.1 µM
KM12 colon
  TGI: 40.5 µM
T-47D breast
  TGI: 4.87 µM
M14 melanoma
  TGI: 30.1 µM
A498 renal
  TGI: 38.9 µM
HS 578T breast
  TGI: 33.8 µM
HOP-92 NSCLC
  TGI: > 37.3 µM
OVCAR-5 ovarian
  TGI: 35.3 µM
ACHN renal
  TGI: 15.2 µM
NCI-H23 lung
  TGI: 37.5 µM
SR leukemia
  TGI: > 29.8 µM
RXF 393 renal
  TGI: > 43.5 µM
DU-145 prostate
  TGI: 5.85 µM
MOLT-4 leukemia
  TGI: > 23.6 µM
UACC-257 melanoma
  TGI: 20.9 µM
MDA-MB-435
  TGI: 27.8 µM
TK-10 renal
  TGI: 19.4 µM
MDA-MB-231 breast
  TGI: 30.8 µM
IGROV1 ovarian
  TGI: 21.5 µM
HT29 colon
  TGI: 10.6 µM
HCC-2998 colon
  TGI: 38.4 µM
EKVX NSCLC
  TGI: 30.5 µM
A549 NSCLC
  TGI: 37.3 µM
SN12C renal
  TGI: 21.3 µM
COLO 205 colon
  TGI: 25.9 µM
SK-MEL-28 melanoma
  TGI: 27.2 µM
786-0 renal
  TGI: 4.78 µM
U251 CNS
  TGI: > 56.1 µM
MALME-3M melanoma
  TGI: 7.87 µM
SF-539 CNS
  TGI: 27.2 µM
UACC-62 melanoma
  TGI: 28.5 µM
SK-OV-3 ovarian
  TGI: 33.9 µM
